Earlier results on two substances are cited in patent publication US11174289B1, “Artificial intelligence designed antimicrobial peptides” (International Business Machines Corporation, priority 2020, dated 2021).

For series [1] the following is noted: no significant antimicrobial activity; strain not given.
The conditions of series [2]: comparison value for the clinically used drug.

For FPVTWPTKWWKG [PuroB], in series [1], the MIC was greater than 200 µg/mL. For polymyxin B, in series [2], the LD50 is listed as 20.5 mg/kg.
